How the values were obtained:
[1] = test system: WIBR2 hESC carrying MECP2 fluorescent reporter alleles; experiment: X chromosome reactivation, MECP2 two-colour reporter FACS; type: cell-based, human; settings: added to ENHSM without ERKi (0ENHSM) or with 0.33 microM ERKi (tENHSM)
Text: FIGS. 17A-D. Chromosome X reactivation status and DNA methylation profile in ENHSM based conditions. A. Schematic and FACS results following using WIBR2 (person 46XX) 29-9 hESC line that carries GFP and mCherry on each of the X chromosomes in the MECP2 locus. Parental 29-9 clone has the X chromosome carrying mCherry allele in the active state, and thus is positive only for mCherry and negative for GFP in the primed state. Upon transfer to ENHSM conditions, all cells turn on both X chromosomes and thus become double positive for both fluorescent markers (GFP and mCherry). After transfer into primed conditions (i.e. repriming), cells start to inactivate the X chromosome again. B. RNA-FISH analysis for ATRX transcription in primed and ENHSM WIBR3 cells. Note ATRX is active on both X chromosomes only in ENHSM conditions. C. Western blot analysis for DNA methylation regulators, DNMT1 and UHRF enzymes. DNMT1 protein levels are maintained in all conditions. […] D. Global methylation histogram as calculated from primed samples, and naïve samples that were maintained in various conditions, including titrated ERKi supplementation, along with previously published Reset-naïve and primed samples (Takashima et al), and human ICM samples (Smith et al, Nature 2014, Guo et al, Nature 2014). […]

[2] = test system: Tet-OFF-METTL3 hESCs (WIBR3, clone W3G4); experiment: Pluripotency (OCT4+) maintenance of Tet-OFF-METTL3 hESCs in the presence of DOX; type: cell-based, human; settings: for expansion of Tet-OFF-METTL3 on DOX: individual small molecule supplemented to NHSM, Geltrex coated plates, no MEFs; for expanding METTL3 depleted cells when substituted for TNKi: optimized ENHSM conditions without TNKi, DOX up to 4 passages
Text: FIGS. 1A-I Defining enhanced human naive conditions compatible with expanding METTL3 depleted PSCs. A. Strategy for generating human ESCs with TET-OFF regulated expression of METTL3 m^6A methyltransferase enzyme. B. Western blot analysis for correctly engineered human ESCs with TET-OFF METTL3 regulation, before and after DOX treatment. C. Representative images for human METTL3 TET-OFF engineered cells in different conditions with or without DOX addition. […] D. Scheme depicting strategy for conducting a screen for identifying a small molecule or cytokine additive to previously described human naïve NHSM conditions that allow maintain pluripotency in TET-OFF METTL3 human stem cells after adding DOX. E. W3G4 cells were maintained in the presence of DOX for up to 4 passages in different conditions and stained for OCT4 to quantify percentage of cells that retained their pluripotency. […] F. OCT4+ pluripotency maintenance in NHSM conditions supplemented with various TNK inhibitors and DOX to repress METTL3 expression. G. Quantification of ΔPE-OCT4-GFP knock in naïve pluripotency reporter, in variety of primed (red) and naïve conditions (blue). Mean fluorescence intensity values (MFI) are indicated. H. Quantification of ΔPE-OCT4-GFP knock in naïve pluripotency reporter in variety of conditions with various concentrations of ACTIVIN A recombinant cytokine. […] I. Representative phase contrast images in human ESCs expanded in NHSM+TNKi conditions showing their maintenance of pluripotent domed-like morphology even in the presence of FGFRi.
In order to identify culture conditions which capture human naïve PSC, the present inventors looked for agents which are capable of maintaining stem cells in a pluripotent state in the absence of defined epigenetic repressors. Human knock-in WIBR3 hESC lines with conditional inducible ablation expression of METTL3 were engineered (FIG. 1A). This was carried out by introducing an exogenous METTL3 transgene under the regulation of Tet-OFF promoter (Liao et al., 2015), followed by CRISPR/Cas9 mediated ablation of both endogenous human METTL3 alleles. Two resultant clones were validated for METTL3 expression only from the exogenous allele, which can be shut off by addition of DOX to the media (called Tet-OFF-METTL3 lines) (FIG. 1B).
The latter further support rewiring toward naïve pluripotency in NHSM conditions. […] Candidate molecules were tested for the ability to enrich NHSM conditions that allow Tet-OFF-METTL3 to be maintained on Geltrex coated plates in the presence of DOX.
NHSM conditions were supplemented with individual small molecules (FIG. 1D). […] IWR1 is a WNT inhibitor (WNTi) small molecule that stabilizes AXIN protein in the cytoplasm by inhibiting Tankyrase enzyme (abbreviated herein as TNK inhibitor—TNKi).

human ESCs = experiment: Domed morphology under TGF/ACTIVIN signalling blockade; type: cell-based
Text: FIGS. 1A-I Defining enhanced human naive conditions compatible with expanding METTL3 depleted PSCs. A. Strategy for generating human ESCs with TET-OFF regulated expression of METTL3 m^6A methyltransferase enzyme. B. Western blot analysis for correctly engineered human ESCs with TET-OFF METTL3 regulation, before and after DOX treatment. C. Representative images for human METTL3 TET-OFF engineered cells in different conditions with or without DOX addition. […] E. W3G4 cells were maintained in the presence of DOX for up to 4 passages in different conditions and stained for OCT4 to quantify percentage of cells that retained their pluripotency. […] G. Quantification of ΔPE-OCT4-GFP knock in naïve pluripotency reporter, in variety of primed (red) and naïve conditions (blue). Mean fluorescence intensity values (MFI) are indicated. H. Quantification of ΔPE-OCT4-GFP knock in naïve pluripotency reporter in variety of conditions with various concentrations of ACTIVIN A recombinant cytokine. […]
FIGS. 3A-I. Defining enhanced human naive conditions compatible with blocking TGF/ACTIVIN signaling. […] F. Mass spectrometry-based quantification of m^6A on isolated mRNA from the indicated cell lines and conditions. […]

C[C@H](NC(=O)Cc1cc(F)cc(F)c1)C(=O)N[C@@H]1C(=O)N(C)c2ccccc2-c2ccccc21 [DBZ]
maintenance of pre-X inactivation naïve state when ERKi is omitted or depleted [1]: allowed robust and feeder free maintenance of human naïve cells

O=C(Nc1cccc2cccnc12)c1ccc(N2C(=O)[C@@H]3[C@H](C2=O)[C@H]2C=C[C@@H]3C2)cc1 [exo-IWR1]
expansion of Tet-OFF-METTL3 on DOX [2]: failed to do so

O=C1Cc2c([nH]c3ccc(Br)cc23)-c2ccccc2N1 [Kenpaullone]
expanding METTL3 depleted cells when substituted for TNKi [2]: none of them allowed expanding METTL3 depleted cells in vitro

CCCC(CCC)C(=O)O [VPA]
expanding METTL3 depleted cells when substituted for TNKi [2]: none of them allowed expanding METTL3 depleted cells in vitro

Cc1cccc(-c2nn(C(=S)Nc3ccccc3)cc2-c2ccnc3ccccc23)n1 [Condition A83-01]
domed morphology after TGFRi (human ESCs; cells in ENHSM): maintained
domed morphology after TGFRi (human ESCs; cells in NHSM+TNKi): lose their pluripotent dome-like shaped morphology and differentiate

COc1cccc(-c2cn(-c3ccc(CCN4CCC(O)CC4)cc3)c3ncnc(N)c23)c1 [CGP77675]
maintenance of OCT4+ cells without ACTIVIN A ([2]; TNKi supplemented optimized NHSM, no ACTIVIN A, on DOX): dramatically maintained the stability of dome like cells that were uniformly OCT4+

Oc1nc(-c2ccc(C(F)(F)F)cc2)nc2c1CSCC2 [XAV939]
expansion of Tet-OFF-METTL3 on DOX [2]: yielded a similar effect

B1: ACTIVIN A: recombinant cytokine, activator of TGF/ACTIVIN pathway (protein)
chain: MPLLWLRGFLLASCWIIVRSSPTPGSEGHSAAPDCPSCALAALPKDVPNSQPEMVEAVKKHILNMLHLKKRPDVTQPVPKAALLNAIRKLHVGKVGENGYVEIEDDIGRRAEMNELMEQTSEIITFAESGTARKTLHFEISKEGSDLSVVERAEVWLFLKVPKANRTRTKVTIRLFQQQKHPQGSLDTGEEAEEVGLKGERSELLLSEKVVDARKSTWHVFPVSSSIQRLLDQGKSSLDVRIACEQCQESGASLVLLGKKKKKEEEGEGKKKGGGEGGAGADEEKEQSHRPFLMLQARQSEDHPHRRRRRGLECDGKVNICCKKQFFVSFKDIGWNDWIIAPSGYHANYCEGECPSHIAGTSGSSLSFHSTVINHYRMRGHSPFANLKSCCVPTKLRPMSMLYYDDGQNIIKKDIQNMIVEECGCS
modifications: homo sapiens
maintenance of pre-X inactivation naïve state when ERKi is omitted or depleted [1]: did not block loss X reactivation

Reference: patent US20210363495A1, “CULTURE MEDIA FOR PLURIPOTENT STEM CELLS” (Yeda Research and Development Co. Ltd., priority 2019, published 2021)
